Measurements: ChEMBL document CHEMBL3045083, “Insect growth regulators as potential insecticides to control olive fruit fly (Bactrocera oleae Rossi): insect toxicity bioassays and molecular docking approach” (2013)

Tests used:
Type in all cases: functional
Bactrocera oleae [1] = test: Insecticidal activity against Bactrocera oleae assessed as insect mortality after 24 hr
Bactrocera oleae [2] = test: Insecticidal activity against Bactrocera oleae assessed as insect mortality at 96 mg Ai/L applied through oral ingestion measured after 15 days (reference value: 2.5 +/- 2.5%); settings: 360 h
Bactrocera oleae [3] = test: Insecticidal activity against Bactrocera oleae assessed as insect mortality at 96 mg Ai/L applied through oral ingestion measured after 24 hr (reference value: 0%)
Bactrocera oleae [4] = test: Insecticidal activity against Bactrocera oleae assessed as insect mortality at 96 mg Ai/L applied through residual contact on glass surfaces measured after 15 days (reference value: 45.8 +/- 16.3%); settings: 360 h
Bactrocera oleae [5] = test: Insecticidal activity against Bactrocera oleae assessed as insect mortality at 96 mg Ai/L applied through residual contact on glass surfaces measured after 7 days (reference value: 4.0 +/- 4.0%); settings: 168 h
Bactrocera oleae [6] = test: Insecticidal activity against Bactrocera oleae assessed as insect mortality at 96 mg Ai/L applied through residual contact on glass surfaces measured after 24 hr (reference value: 2.0 +/- 2.0%)
Bactrocera oleae [7] = test: Insecticidal activity against Bactrocera oleae assessed as insect survival lifespan at 96 mg Ai/L applied through oral ingestion (reference value: 79.7 +/- 12.2 days)
Bactrocera oleae [8] = test: Insecticidal activity against Bactrocera oleae assessed as insect mortality at 96 mg Ai/L applied through oral ingestion measured after 7 days (reference value: 2.5 +/- 2.5%); settings: 168 h
Bactrocera oleae [9] = test: Insecticidal activity against Bactrocera oleae assessed as insect mortality at 180 mg Ai/L applied through residual contact on glass surfaces measured after 7 days (reference value: 4.0 +/- 4.0%); settings: 168 h
Anastrepha suspensa [10] = test: Insecticidal activity against Anastrepha suspensa assessed as reduction in egg viability administered through diet ingestion measured after 8 to 10 days
Bactrocera oleae [11] = test: Insecticidal activity against Bactrocera oleae assessed as insect mortality at 180 mg Ai/L applied through residual contact on glass surfaces measured after 15 days (reference value: 45.8 +/- 16.3%); settings: 360 h
Bactrocera oleae [12] = test: Insecticidal activity against Bactrocera oleae assessed as insect survival lifespan at 180 mg Ai/L applied through oral ingestion (reference value: 79.7 +/- 12.2 days)
Bactrocera oleae [13] = test: Insecticidal activity against Bactrocera oleae assessed as insect mortality at 180 mg Ai/L applied through residual contact on glass surfaces measured after 24 hr (reference value: 2.0 +/- 2.0%)
Bactrocera oleae [14] = test: Insecticidal activity against Bactrocera oleae assessed as insect mortality at 180 mg Ai/L applied through oral ingestion measured after 7 days (reference value: 2.5 +/- 2.5%); settings: 168 h
Anastrepha suspensa [15] = test: Insecticidal activity against Anastrepha suspensa assessed as insect mortality administered through diet ingestion measured after 12 to 14 days
Bactrocera oleae [16] = test: Insecticidal activity against Bactrocera oleae assessed as insect mortality at 180 mg Ai/L applied through oral ingestion measured after 24 hr (reference value: 0%)
Bactrocera oleae [17] = test: Insecticidal activity against Bactrocera oleae assessed as insect mortality at 180 mg Ai/L applied through oral ingestion measured after 15 days (reference value: 2.5 +/- 2.5%); settings: 360 h

SMILES | mortality (Bactrocera oleae [1]) [%] | mortality at 96 µg/mL (Bactrocera oleae [2]) [%] | mortality at 96 µg/mL (Bactrocera oleae [3]) [%] | mortality at 96 µg/mL (Bactrocera oleae [4]) [%] | mortality at 96 µg/mL (Bactrocera oleae [5]) [%] | mortality at 96 µg/mL (Bactrocera oleae [6]) [%] | Survival (Bactrocera oleae [7]) [days] | mortality at 96 µg/mL (Bactrocera oleae [8]) [%] | mortality at 180 µg/mL (Bactrocera oleae [9]) [%] | Activity (Anastrepha suspensa [10]) [%] | mortality at 180 µg/mL (Bactrocera oleae [11]) [%] | Survival (Bactrocera oleae [12]) [days] | mortality at 180 µg/mL (Bactrocera oleae [13]) [%] | mortality at 180 µg/mL (Bactrocera oleae [14]) [%] | mortality (Anastrepha suspensa [15]) [%] | mortality at 180 µg/mL (Bactrocera oleae [16]) [%] | mortality at 180 µg/mL (Bactrocera oleae [17]) [%]
CC[C@H]1CCC[C@H](O[C@H]2CC[C@H](N(C)C)[C@@H](C)O2)[C@@H](C)C(=O)C2=C[C@@H]3[C@@H](C=C(C)[C@@H]4C[C@@H](O[C@@H]5O[C@@H](C)[C@H](OC)[C@@H](OC)[C@H]5OC)C[C@@H]34)[C@@H]2CC(=O)O1.CC[C@H]1CCC[C@H](O[C@H]2CC[C@H](N(C)C)[C@@H](C)O2)[C@@H](C)C(=O)C2=C[C@@H]3[C@@H](C=C[C@@H]4C[C@@H](O[C@@H]5O[C@@H](C)[C@H](OC)[C@@H](OC)[C@H]5OC)C[C@@H]34)[C@@H]2CC(=O)O1 | 62 |  |  |  |  |  |  |  |  |  |  |  |  |  |  |  | 
COc1cccc(C(=O)NN(C(=O)c2cc(C)cc(C)c2)C(C)(C)C)c1C [METHOXYFENOZIDE] |  | 2.5 | 2.5 | 49.1 | 0 | 0 | 8.6 | 2.5 |  |  |  |  |  |  |  |  | 
CC(C)(C)N(NC(=O)c1ccccc1)C(=O)c1ccccc1 [RH-5849] |  |  |  |  |  |  |  |  | 86 | 60 | 100 | 8.7 | 0 | 31.8 | >75 | 0 | 98.2
CCc1ccc(C(=O)NN(C(=O)c2cc(C)cc(C)c2)C(C)(C)C)cc1 [TEBUFENOZIDE] |  |  |  |  |  |  |  |  | 18 |  | 58 | 66.9 | 0 | 0 |  | 0 | 0
